Data: patent publication US20050267222A1, “Stabilized composition” (DAINIPPON PHARMACEUTICAL CO. LTD., priority 2002, published 2005)

Legend:
[1] = Absorption of aldehyde by stabilizer (Experiment 4); assay type: physicochemical; details: for Residual rate of formaldehyde in the cup: 25° C. for 2 days, 1 g meglumine powder enclosed
Method: Meglumine powder (1 g) was stored in a sealed stoppered glass test tube together with a cup containing an aqueous formaldehyde solution (2 ml) (containing potassium iodide for adjusting moisture) in various concentrations (see FIG. 4). For a comparative control, a cup containing an aqueous formaldehyde solution (2 ml) (containing potassium iodide for adjusting moisture) in various concentrations was put into a sealed stoppered glass test tube without meglumine. The test tubes were stored at 25° C. or 40° C. for 2 days, and the residual amount of formaldehyde in the cup was measured in a similar manner to Experiment 1.

[2] = Reaction of Compound A powder with formaldehyde vapour, related substances by HPLC (Experiment 2); assay type: physicochemical; details: 50° C. for 14 days
Method: When Compound A powder (2 mg) was stored in a sealed stoppered glass test tube together with a cup containing an aqueous formaldehdye solution (1 ml) in various concentrations (see FIG. 2), and stored at 50° C. for 14 days, the generated amount of related substances of Compound A was measured. The generated amount of the related substances was measured by dissolving Compound A powder (2 mg) in methanol (200 ml) to give a test solution, and applying 10 μl thereof to high performance liquid chromatograph under the following conditions. The percentage ratio of the peak area of the related substances to the total peak area including that of Compound A was regarded as the generation amount thereof.
Conditions for High Performance Liquid Chromatograph:
Column: Develosil ODS-5 (inner diameter: 4.6 mm×150 mm, manufactured by NOMURA CHEMICAL CO., LTD.)
Mobile phase: Mixture of 0.01M citric acid buffer (pH 2.5):acetonitrile (75:25)
Detector: Ultraviolet-visible spectrophotometer (wave length for detection: 220 nm)
Temperature: Constant temperature around 40° C.

SMILES	Residual ratio of formaldehyde in the cup compared to without meglumine (in words) ([1]; after storage)	Residual rate of formaldehyde in the cup ([1]; formaldehyde 0.1 μg/ml)	Residual rate of formaldehyde in the cup ([1]; formaldehyde 0.5 μg/ml)	Residual rate of formaldehyde in the cup ([1]; formaldehyde 1 μg/ml)	Generated amount of related substances ([2]; aldehyde concentration in the cup: Not detected)	Generated amount of related substances ([2]; aqueous formaldehyde in the cup 0.0625 μg/ml)	Generated amount of related substances ([2]; aqueous formaldehyde in the cup 0.125 μg/ml)	Generated amount of related substances ([2]; aqueous formaldehyde in the cup 0.25 μg/ml)	Generated amount of related substances ([2]; aqueous formaldehyde in the cup 0.5 μg/ml)	Generated amount of related substances ([2]; aqueous formaldehyde in the cup 1.0 μg/ml)
CNC[C@H](O)[C@@H](O)[C@H](O)[C@H](O)CO [meglumine]	apparently lowered	85.1%	75.5%	70.7%	–	–	–	–	–	–
C[C@H](Cc1c[nH]c2c(OCC(=O)O)cccc12)NC[C@H](O)c1cccc(Cl)c1 [Compound A, [3-[(2R)-[[(2R)-(3-chlorophenyl)-2-hydroxyethyl]amino]propyl]-1H-indol-7-yleoxy]acetic acid]	–	–	–	–	Not detected	Not detected	0.031%	0.063%	0.091%	0.136%
